{
  "source": "the supplement of paper PMC10307832",
  "assay_in_all_cases": "relative viability (nuclei count vs DMSO), 5 days (fraction); higher = more cells survive",
  "key": {"NCI-H358": {"test_system": "NCI-H358", "procedure,_shortened": "(§1)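 Nuclei were stained with Hoechst during a one-step fixation (final 0.05% Triton X-100, 1% formaldehyde, 1 ug/ml Hoechst) carried out 5 days after dosing, then counted on 4× images. The cells, lung cancer lines in 1536-well plates, had been dosed by pin tool the day after seeding with one drug alone or a fixed anchor-drug dose plus five library-drug doses (not always all listed) in √10 steps. Relative viability is the nuclei count in treated wells divided by that in vehicle wells, and each value is the median of duplicate plates.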"}, "HCC-827": {"test_system": "HCC-827", "procedure,_shortened": "as §1"}, "COR-L23": {"test_system": "COR-L23", "procedure,_shortened": "as §1"}, "NCI-H838": {"test_system": "NCI-H838", "procedure,_shortened": "as §1"}, "SW 900": {"test_system": "SW 900", "procedure,_shortened": "as §1"}, "EKVX": {"test_system": "EKVX", "procedure,_shortened": "as §1"}, "NCI-H1437": {"test_system": "NCI-H1437", "procedure,_shortened": "as §1"}, "NCI-H2342": {"test_system": "NCI-H2342", "procedure,_shortened": "as §1"}, "A-427": {"test_system": "A-427", "procedure,_shortened": "as §1"}, "HCC-15": {"test_system": "HCC-15", "procedure,_shortened": "as §1"}, "NCI-H650": {"test_system": "NCI-H650", "procedure,_shortened": "as §1"}},
  "data": [
    {"smiles": "Cc1sc2c(c1C)C(c1ccc(Cl)cc1)=N[C@@H](CC(=O)OC(C)(C)C)c1nnc(C)n1-2", "note": "[JQ1] + O=C(c1cc(Cc2n[nH]c(=O)c3ccccc23)ccc1F)N1CCN(C(=O)C2CC2)CC1 [Olaparib] (partner 8 µM)", "values": [
      {"measurement": "relative viability", "setting": "NCI-H358; first compound 0.04 µM", "result": 0.509},
      {"measurement": "relative viability", "setting": "NCI-H358; first compound 0.1265 µM", "result": 0.58},
      {"measurement": "relative viability", "setting": "NCI-H358; first compound 0.4 µM", "result": 0.604},
      {"measurement": "relative viability", "setting": "NCI-H358; first compound 1.265 µM", "result": 0.406},
      {"measurement": "relative viability", "setting": "NCI-H358; first compound 4 µM", "result": 0.37},
      {"measurement": "relative viability", "setting": "HCC-827; first compound 0.04 µM", "result": 0.622},
      {"measurement": "relative viability", "setting": "HCC-827; first compound 0.1265 µM", "result": 0.477},
      {"measurement": "relative viability", "setting": "HCC-827; first compound 1.265 µM", "result": 0.596},
      {"measurement": "relative viability", "setting": "HCC-827; first compound 4 µM", "result": 0.363},
      {"measurement": "relative viability", "setting": "COR-L23; first compound 0.04 µM", "result": 0.357},
      {"measurement": "relative viability", "setting": "COR-L23; first compound 0.1265 µM", "result": 0.229},
      {"measurement": "relative viability", "setting": "COR-L23; first compound 0.4 µM", "result": 0.295},
      {"measurement": "relative viability", "setting": "COR-L23; first compound 1.265 µM", "result": 0.11},
      {"measurement": "relative viability", "setting": "COR-L23; first compound 4 µM", "result": 0.136},
      {"measurement": "relative viability", "setting": "NCI-H838; first compound 0.04 µM", "result": 0.749},
      {"measurement": "relative viability", "setting": "NCI-H838; first compound 0.1265 µM", "result": 0.327},
      {"measurement": "relative viability", "setting": "NCI-H838; first compound 0.4 µM", "result": 0.395},
      {"measurement": "relative viability", "setting": "NCI-H838; first compound 1.265 µM", "result": 0.237},
      {"measurement": "relative viability", "setting": "NCI-H838; first compound 4 µM", "result": 0.174},
      {"measurement": "relative viability", "setting": "SW 900; first compound 0.04 µM", "result": 0.862},
      {"measurement": "relative viability", "setting": "SW 900; first compound 0.1265 µM", "result": 0.739},
      {"measurement": "relative viability", "setting": "SW 900; first compound 0.4 µM", "result": 0.479},
      {"measurement": "relative viability", "setting": "SW 900; first compound 1.265 µM", "result": 0.303},
      {"measurement": "relative viability", "setting": "SW 900; first compound 4 µM", "result": 0.22},
      {"measurement": "relative viability", "setting": "EKVX; first compound 0.04 µM", "result": 0.836},
      {"measurement": "relative viability", "setting": "EKVX; first compound 0.1265 µM", "result": 0.817},
      {"measurement": "relative viability", "setting": "EKVX; first compound 0.4 µM", "result": 0.825},
      {"measurement": "relative viability", "setting": "EKVX; first compound 1.265 µM", "result": 0.78},
      {"measurement": "relative viability", "setting": "EKVX; first compound 4 µM", "result": 0.399},
      {"measurement": "relative viability", "setting": "NCI-H1437; first compound 0.04 µM", "result": 0.595},
      {"measurement": "relative viability", "setting": "NCI-H1437; first compound 0.1265 µM", "result": 0.572},
      {"measurement": "relative viability", "setting": "NCI-H1437; first compound 0.4 µM", "result": 0.519},
      {"measurement": "relative viability", "setting": "NCI-H1437; first compound 1.265 µM", "result": 0.29},
      {"measurement": "relative viability", "setting": "NCI-H1437; first compound 4 µM", "result": 0.279},
      {"measurement": "relative viability", "setting": "NCI-H2342; first compound 0.04 µM", "result": 0.5},
      {"measurement": "relative viability", "setting": "NCI-H2342; first compound 0.1265 µM", "result": 0.501},
      {"measurement": "relative viability", "setting": "NCI-H2342; first compound 0.4 µM", "result": 0.476},
      {"measurement": "relative viability", "setting": "NCI-H2342; first compound 1.265 µM", "result": 0.313},
      {"measurement": "relative viability", "setting": "NCI-H2342; first compound 4 µM", "result": 0.295},
      {"measurement": "relative viability", "setting": "A-427; first compound 0.04 µM", "result": 0.693},
      {"measurement": "relative viability", "setting": "A-427; first compound 0.1265 µM", "result": 0.72},
      {"measurement": "relative viability", "setting": "A-427; first compound 0.4 µM", "result": 0.83},
      {"measurement": "relative viability", "setting": "A-427; first compound 1.265 µM", "result": 0.709},
      {"measurement": "relative viability", "setting": "A-427; first compound 4 µM", "result": 0.418},
      {"measurement": "relative viability", "setting": "HCC-15; first compound 0.04 µM", "result": 0.528},
      {"measurement": "relative viability", "setting": "HCC-15; first compound 0.1265 µM", "result": 0.641},
      {"measurement": "relative viability", "setting": "HCC-15; first compound 0.4 µM", "result": 0.693},
      {"measurement": "relative viability", "setting": "HCC-15; first compound 1.265 µM", "result": 0.58},
      {"measurement": "relative viability", "setting": "HCC-15; first compound 4 µM", "result": 0.392},
      {"measurement": "relative viability", "setting": "NCI-H650; first compound 0.04 µM", "result": 0.363},
      {"measurement": "relative viability", "setting": "NCI-H650; first compound 0.1265 µM", "result": 0.306},
      {"measurement": "relative viability", "setting": "NCI-H650; first compound 0.4 µM", "result": 0.273},
      {"measurement": "relative viability", "setting": "NCI-H650; first compound 1.265 µM", "result": 0.151},
      {"measurement": "relative viability", "setting": "NCI-H650; first compound 4 µM", "result": 0.146}
    ]}
  ]
}
